Laboratory results published in patent US10683321B2, “4′-or nucleosides for the treatment of HCV” (IDENIX PHARMACEUTICALS LLC, priority 2013, dated 2020).

How the values were obtained:
[1] = target: T1, HCV genotype 1b NS5B protein containing the S282T mutation (Hepatitis C virus genotype 1b, UniProt Q9WMX2, S2701T); assay: HCV Polymerase Enzyme Assay, S282T mutant; format: biochemical
T1 construct: HCV genotype 1b NS5B protein were used to generate recombinant HCV polymerases (with a deletion of the 21 carboxy terminal amino acids); made in house
Text: (§1) Test compounds in the form of nucleoside triphosphates were examined for inhibitory activity against purified HCV polymerase in a standard assay. Bacterial expression constructs encoding the approximately 65 kDa HCV genotype 1b NS5B protein were used to generate recombinant HCV polymerases (with a deletion of the 21 carboxy terminal amino acids). Both the wild-type genotype 1b protein and protein containing the S282T mutation were expressed and purified for use in the enzymatic activity assay.
(§2) The enzymatic activity assay measured the inhibitory effect of increasing concentrations of test compound on the incorporation of α-[^33P]-labeled nucleotide into trichloroacetic acid-precipitable material. Recombinant polymerase and synthetic RNA template were combined in reaction buffer containing ribonucleoside triphosphates, α-[^33P]-labeled nucleotide and eight concentrations of test compound in three-fold dilutions. Reactions were incubated for two hours at 30° C.
(§3) Reactions were terminated by the addition of ice-cold trichloroacetic acid and sodium pyrophosphate to promote precipitation of newly-synthesized ribonucleic acid. Precipitable material from the reactions was collected by filtration onto 96-well filter plates, washed extensively with water, and quantified by liquid scintillation.
(§4) The inhibitory activity of test compounds was determined by fitting results to dose-response curves using XLfit software.

[2] = target: T2, wild-type HCV genotype 1b NS5B protein (recombinant HCV polymerase) (Hepatitis C virus genotype 1b, UniProt Q9WMX2); assay: HCV Polymerase Enzyme Assay, wild-type; format: biochemical
T2 construct: HCV genotype 1b NS5B protein were used to generate recombinant HCV polymerases (with a deletion of the 21 carboxy terminal amino acids); made in house
Text: as §1, §2, §3, §4

[3] = test system: HCV genotype 1b replicon in Huh-7-derived cell line (Zluc); assay: HCV Replicon Assay (luciferase reporter); format: cell-based; settings: Hepatitis C virus; Zluc cells, 72 hours of incubation, luciferase readout
Method: Huh-7-derived cell line (Zluc) that harbors an HCV genotype 1b replicon and a luciferase reporter gene was grown in Dulbecco's Modified Eagle Medium (DMEM) supplemented with 10% fetal bovine serum, 2 mM GlutaMAX, 1% MEM nonessential amino acids, 100 IU/mL penicillin, 100 μg/mL streptomycin, and 0.5 mg/mL Geneticin® (G418). For dose response testing the cells were seeded in 96-well plates at 7.5×10^3 cells per well in a volume of 50 μL, and incubated at 37° C./5% CO2. Drug solutions were made up freshly in Huh-7 media as 2× stocks. Ten additional 5-fold dilutions were prepared from these stocks in DMEM without G418. At least three hours after Zluc cells were seeded, drug treatment was initiated by adding 50 μL of drug dilutions to the plates in duplicate. Final concentrations of drug ranged from 100 μM to 0.0000512 μM. Cells were then incubated at 37° C./5% CO2. Alternatively, compounds were tested at two concentrations (1 μM and 10 μM). […] After 72 hours of incubation, the inhibition of HCV replication was measured by quantification of photons emitted after mono-oxygenation of 5′-fluoroluciferin to oxyfluoroluciferin by firefly luciferase. For this, media was removed from the plates via gentle tapping. Fifty microliters of ONE-glo luciferase assay reagent was added to each well. The plates were shaken gently for 3 min at room temperature and luminescence was measured on a Victor^3 V 1420 multilabel counter (Perkin Elmer) with a 1 second read time using a 700 nm cut-off filter. The EC50 values were calculated from dose response curves from the resulting best-fit equations determined by Microsoft Excel and XLfit 4.1 software. When screening at two fixed concentrations, the results were expressed as % inhibition at 1 μM and 10 μM.

[4] = Cytotoxicity evaluation, CellTiter-Blue Cell Viability Assay; format: cell-based; settings: human, Zluc cells (HCV replicon)
Method: For cytotoxicity evaluation, Zluc cells were treated with compound as described herein, and cell viability was monitored using the CellTiter-Blue Cell Viability Assay (Promega) by adding 20 μL of the assay solution to each well. The plates were then incubated at 37° C./5% CO2 for at least 3 hours. Fluorescence was detected in plates using excitation and emission wavelengths of 560 and 590 nm, respectively, in a Victor^3 V 1420 multilabel counter (Perkin Elmer) and CC50 values were determined using Microsoft Excel and XLfit 4.1 software.

Row | Compound | IC50 [1] [µM] | IC50 [2] [µM] | EC50 [3] [µM] | CC50 at 72 h [4] [µM]
1 | CO[C@]1(COP(=O)(O)OP(=O)(O)OP(=O)(O)O)O[C@@H](n2ccc(=O)[nH]c2=O)[C@H](O)[C@@H]1O [Compound 9a] | 0.25 to 1 | 0.25 to 1 |  | 
2 | CO[C@]1(COP(=O)(O)OP(=O)(O)OP(=O)(O)O)O[C@@H](n2cnc3c(=O)[nH]c(N)nc32)[C@@H](N)[C@@H]1O [Compound 230] |  | 1 to 10 |  | 
3 | CO[C@]1(COP(=O)(O)OP(=O)(O)OP(=O)(O)O)O[C@@H](n2ccc(=O)[nH]c2=O)[C@H](O)[C@@H]1F [Compound 9c] |  | 0.25 to 1 |  | 
4 | CO[C@]1(CO)O[C@@H](n2ccc(=O)[nH]c2=O)[C@H](O)[C@@H]1F [Compound 2c] |  |  | > 10 | > 50
5 | CO[C@]1(CO)O[C@@H](n2ccc(=O)[nH]c2=O)[C@H](O)[C@@H]1N=[N+]=[N-] [Compound 2e] |  |  | > 10 | > 50
6 | CO[C@]1(CO)O[C@@H](n2cnc3c(=O)[nH]c(N)nc32)[C@@H](N=[N+]=[N-])[C@@H]1O [Compound 20] |  |  | > 10 | > 50
7 | CO[C@]1(CO)O[C@@H](n2ccc(N)nc2=O)[C@H](O)[C@@H]1F [Compound 5c] |  |  | > 10 | > 50
8 | CO[C@]1(COP(=O)(N[C@@H](C)C(=O)OC(C)C)OCCSC(=O)C(C)(C)C)O[C@@H](n2ccc(N)nc2=O)[C@H](O)[C@@H]1O (single isomer, unassigned) [Compound 16a] |  |  | > 10 | > 50
9 | CO[C@]1(CO)O[C@@H](n2ccc(=O)[nH]c2=O)[C@H](F)[C@@H]1O [Compound 2b] |  |  | > 10 | > 50
10 | CO[C@]1(CO)O[C@@H](n2cnc3c(=O)[nH]c(N)nc32)[C@H](N=[N+]=[N-])[C@@H]1O [Compound 21] |  |  | > 10 | > 50
11 | CO[C@]1(CO)O[C@@H](n2ccc(=O)[nH]c2=O)[C@H](N=[N+]=[N-])[C@@H]1O [Compound 23] |  |  | > 10 | > 50
12 | CC(C)O[C@]1(CO)O[C@@H](n2ccc(=O)[nH]c2=O)[C@H](F)[C@@H]1O [Compound 7b] |  |  | > 10 | > 50
13 | CO[C@]1(COP(=O)(O)OP(=O)(O)OP(=O)(O)O)O[C@@H](n2ccc(N)nc2=O)[C@H](O)[C@@H]1F [Compound 9g] | 0.25 to 1 | 0.25 to 1 |  | 
14 | CO[C@]1(CO)O[C@@H](n2ccc(N)nc2=O)[C@H](O)[C@@H]1O [Compound 5a2] |  |  | > 10 | > 50
15 | CO[C@@]1(CO)C[C@@H](O)[C@H](n2ccc(=O)[nH]c2=O)O1 [Compound 2d] |  |  | > 10 | > 50
16 | CO[C@]1(COP(=O)(O)OP(=O)(O)OP(=O)(O)O)O[C@@H](n2ccc(N)nc2=O)[C@H](O)[C@@H]1O [Compound 9f] | 0.25 to 1 | < 0.25 |  | 
17 | CO[C@H]1[C@H](n2ccc(=O)[nH]c2=O)O[C@@](COP(=O)(O)OP(=O)(O)OP(=O)(O)O)(OC)[C@H]1O [Compound 224] |  | > 10 |  | 

Row | Compound | IC50 [1] [µM] | IC50 [2] [µM] | EC50 [3] [µM] | CC50 at 72 h [4] [µM]
18 | C#CCO[C@]1(CO)O[C@@H](n2ccc(=O)[nH]c2=O)[C@H](O)[C@@H]1O [Compound 8a] |  |  | > 10 | > 50
19 | CC(C)O[C@]1(CO)O[C@@H](n2ccc(=O)[nH]c2=O)[C@H](O)[C@@H]1O [Compound 7a] |  |  | > 10 | > 50
20 | CO[C@H]1[C@H](n2ccc(=O)[nH]c2=O)O[C@@](CO)(OC)[C@H]1O [Compound 24] |  |  | > 10 | > 50
21 | CO[C@]1(COP(=O)(O)OP(=O)(O)OP(=O)(O)O)O[C@@H](n2cnc3c(=O)[nH]c(N)nc32)[C@H](F)[C@@H]1O [Compound 222] | 0.25 to 1 | < 0.25 |  | 
22 | CO[C@]1(COP(=O)(O)OP(=O)(O)OP(=O)(O)O)O[C@@H](n2cnc3c(=O)[nH]c(N)nc32)[C@@H](N=[N+]=[N-])[C@@H]1O [Compound 220] |  | 1 to 10 |  | 
23 | CO[C@]1(COP(=O)(O)OP(=O)(O)OP(=O)(O)O)O[C@@H](n2ccc(=O)[nH]c2=O)[C@H](N=[N+]=[N-])[C@@H]1O [Compound 223] |  | > 10 |  | 
24 | CO[C@]1(COP(=O)(O)O)O[C@@H](n2ccc(=O)[nH]c2=O)[C@H](O)[C@@H]1O [Compound 18a] |  | > 10 |  | 
25 | CO[C@@]1(COP(=O)(O)OP(=O)(O)OP(=O)(O)O)C[C@@H](O)[C@H](n2ccc(=O)[nH]c2=O)O1 [Compound 9d] |  | 1 to 10 |  | 
26 | CO[C@]1(CO)O[C@@H](n2ccc(=O)[nH]c2=O)[C@H](O)[C@@H]1O [Compound 2a] |  |  | > 10 | > 50
27 | CO[C@]1(COP(=O)(N[C@@H](C)C(=O)OC(C)C)OCCSC(=O)C(C)(C)C)O[C@@H](n2ccc(=O)[nH]c2=O)[C@H](O)[C@@H]1O (stereo partly drawn) [Compound 14a] |  |  | > 10 | > 50
28 | CCO[C@]1(CO)O[C@@H](n2ccc(=O)[nH]c2=O)[C@H](O)[C@@H]1O [Compound 6a] |  |  | > 10 | > 50
29 | CO[C@]1(COP(=O)(O)OP(=O)(O)OP(=O)(O)O)O[C@@H](n2ccc(=O)[nH]c2=O)[C@H](F)[C@@H]1O [Compound 9b] |  | 1 to 10 |  | 
30 | CO[C@]1(COP(=O)(O)OP(=O)(O)O)O[C@@H](n2ccc(=O)[nH]c2=O)[C@H](O)[C@@H]1O [Compound 17a] |  | > 10 |  | 
31 | CO[C@]1(COP(=O)(O)OP(=O)(O)OP(=O)(O)O)O[C@@H](n2ccc(=O)[nH]c2=O)[C@H](N)[C@@H]1O [Compound 233] |  | 1 to 10 |  | 
32 | CO[C@]1(COP(=O)(N[C@H](C)C(=O)OC(C)C)Oc2ccccc2)O[C@@H](n2ccc(N)nc2=O)[C@H](O)[C@@H]1O (stereo partly drawn) [Compound 13a] |  |  | > 10 | > 50
33 | CO[C@]1(COP(=O)(N[C@H](C)C(=O)OC(C)C)Oc2ccccc2)O[C@@H](n2ccc(=O)[nH]c2=O)[C@H](N=[N+]=[N-])[C@@H]1O (stereo partly drawn) [Compound 123] |  |  | > 10 | > 50
34 | CO[C@]1(COP(=O)(O)OP(=O)(O)OP(=O)(O)O)O[C@@H](n2ccc(=O)[nH]c2=O)[C@H](O)[C@@H]1N [Compound 9e] |  | > 10 |  | 
